Laboratory results taken from US11857535B2, “Methods of treating mutant lymphomas” (Kymera Therapeutics, Inc., priority 2020, dated 2024).

Assays:
OCI-Ly10 = assay: CTG cell viability assay - OCI-Ly10; format: cell-based; conditions: Homo sapiens, 96 h; OCI-Ly10, 4 days
Experimental: Compound-mediated viability effect on OCI-Ly10 or SUDHL-2 was quantitatively determined using the CellTiter-Glo® Luminescent Cell Viability Assay kit from Promega (Catalog number G7570) following manufacturer's recommended procedures. Briefly, OCI-Ly10 or SUDHL-2 cells were seeded into 384 well plates (Grenier Bio-One, Catalog number 781080) with a density of 10,000 cells per well. Compounds were then added to the assay plate with final top concentration of 10 μM and 1:3 dilution series with total of 9 doses. The final DMSO concentration was normalized to 0.2%. The assay plates were incubated at 37° C. for 4 days under 5% CO2. Then the assay plate was equilibrated at room temperature for 10 minutes. To determine cell viability, 30 μL CellTiter Glo reagent was added to each well and the assay plate was centrifuged at 1000 rpm for 30 second, incubated at room temperature for 10 min, and analyzed by detecting the luminescence using a multimode plate reader (EnVision 2105, PerkinElmer). The data was then analyzed by software Prism 7.0 from GraphPad and the dose response curves were fit using a three-parameter logistic equation to calculate IC50.

IRAK4 = target: T1, IRAK4 (Homo sapiens, UniProt Q9NWZ3); assay: IRAK4 MSD degradation in OCI-Ly10; format: cell-based; conditions: OCI-Ly10 cells, 24 hrs
T1 construct: endogenous in cells; host or cells: OCI-Ly10
T1 sequence (Q9NWZ3 1-460): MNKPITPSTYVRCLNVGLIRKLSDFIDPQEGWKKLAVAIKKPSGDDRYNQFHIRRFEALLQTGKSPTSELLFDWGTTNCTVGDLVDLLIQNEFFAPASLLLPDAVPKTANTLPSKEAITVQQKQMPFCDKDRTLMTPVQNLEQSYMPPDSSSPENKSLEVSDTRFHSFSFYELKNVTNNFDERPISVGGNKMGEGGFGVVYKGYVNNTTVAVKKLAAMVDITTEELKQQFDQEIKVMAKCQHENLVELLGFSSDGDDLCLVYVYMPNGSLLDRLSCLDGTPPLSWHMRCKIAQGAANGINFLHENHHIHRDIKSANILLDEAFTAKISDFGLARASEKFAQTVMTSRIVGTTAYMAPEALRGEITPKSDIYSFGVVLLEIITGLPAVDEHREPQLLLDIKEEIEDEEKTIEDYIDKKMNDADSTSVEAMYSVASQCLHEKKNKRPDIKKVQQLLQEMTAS
Experimental: Degradation of IRAK4 in OCI-Ly10 was quantitatively measured using Meso Scale Discovery technology. OCI-Ly10 cells were seeded in 96-well plates (Corning 3799) with a density of 300,000 cells per well in 100 μL fresh media. Compounds were then added to the assay plates with a final top concentration of 1 to 10 μM in a 1:3 dilution series with total of 8 doses. The assay plates were then incubated for 4 to 24 hours at 37° C. under 5% CO2. The assay plates were then centrifuged for 5 minutes and the cell pellets were treated with 100 μL/well RIPA lysis buffer (Boston BioProducts BP-115D) with proteinase inhibitors. To prepare MSD assay plates (Meso Scale Discovery Catalog number L15XA-3), the plates were coated with 2 μg/mL capture antibody (mouse Anti-IRAK4 antibody [2H9], ab119942) in PBS, at 40 μL/well. The plates were then incubated overnight at 4° C., washed 3 times with 150 μL/well TBST buffer (Cell Signaling Technology, Catalog number 9997S) and blocked with 150 μL/well blocking buffer (Meso Scale Discovery Catalog number R93BA-4). Cell lysates were then added to MSD assay plates and the plates were incubated at room temperature for 1 hour. The plates were then washed 3 times with 150 μL/well TBST buffer and […] primary detection antibody (rabbit Anti-IRAK4 antibody [Y279], from Abcam. Catalog number ab32511, 1 μg/mL). The assay plates were then incubated at room temperature for 1 hour, washed 3 times with 150 μL/well TBST buffer and 25 μL/well secondary detection antibody, SULFO-TAG anti-rabbit antibody were added (anti rabbit antibody from Meso Scale Discovery, Catalog number R32AB-1, 1 μg/mL). The assay plates were then incubated at room temperature for 1 hour, washed 3 times with 150 μL/well TBST buffer, and 150 μL/well MSD reading buffer (Meso Scale Discovery catalog number R92TC-2) was added. The plates were then analyzed by a MSD reader (Meso Scale Discovery, Model Quick Plex SQ 120). The data was then analyzed by software Prism 7.0 from GraphPad and the dose-depended IRAK4 degradation were fit using a three-parameter logistic equation to calculate DC50.

[1] = tested on: MYD88-mutant and wild type DLBCL PDX models; conditions: MYD88 MT model LY0257 with mutation in Aiolos; cited from earlier work

IC50 (OCI-Ly10) | DC50 (IRAK4) | SMILES | sensitivity of PDX model LY0257 [1]
< 0.05 µM | < 0.05 µM | CC(C)(O)c1cc2nc([C@H]3CC[C@H](CN4CC5(CC(CCNc6cccc7c6C(=O)N([C@@H]6CCC(=O)NC6=O)C7=O)C5)C4)CC3)sc2cc1NC(=O)c1cccc(C(F)(F)F)n1 (single isomer, unassigned) [Compound (R)-A] | 
< 0.05 µM | < 0.05 µM | CC(C)(O)c1cc2nc([C@H]3CC[C@H](CN4CC5(CC(CCNc6cccc7c6C(=O)N([C@H]6CCC(=O)NC6=O)C7=O)C5)C4)CC3)sc2cc1NC(=O)c1cccc(C(F)(F)F)n1 (single isomer, unassigned) [Compound (S)-A] | 
 |  | Nc1cccc2c1CN(C1CCC(=O)NC1=O)C2=O (centres unmarked) [lenalidomide] | insensitive
